According to publication PMC10983001, “Development of Cytotoxic GW7604-Zeise’s Salt Conjugates as Multitarget Compounds with Selectivity for Estrogen Receptor- Positive Tumor Cells” (Journal of Medicinal Chemistry, 2024):

Experiments:
[1] = target: T1, ERα ligand-binding domain (Homo sapiens, UniProt P03372); experiment: TR-FRET ligand binding assay, isolated LBD of ERα
T1 construct: purchased Invitrogen
T1 sequence (P03372 311-547 limits assumed): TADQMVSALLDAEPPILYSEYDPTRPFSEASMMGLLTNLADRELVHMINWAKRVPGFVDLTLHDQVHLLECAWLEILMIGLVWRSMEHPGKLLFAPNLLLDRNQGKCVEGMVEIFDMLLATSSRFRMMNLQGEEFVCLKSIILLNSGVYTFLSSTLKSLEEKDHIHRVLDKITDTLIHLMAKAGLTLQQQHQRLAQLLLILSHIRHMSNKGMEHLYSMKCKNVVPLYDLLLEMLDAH
Experimental: A modified LanthaScreen TR-FRET alpha/beta assay was performed, according to the manufacturer’s protocol (Invitrogen, Carlsbad, […]), to determine the binding affinity to the isolated LBD. […] Measurements were carried out on a multimode plate reader, Tecan Spark (Tecan, Männedorf, Switzerland). Calculations and visualization were performed with GraphPad Prism 8.0 (GraphPad Software, San Diego, CA, USA).

plasmid pSport1 = experiment: DNA interference assay (gel electrophoresis); format: binding; conditions: 20 μM, 4 h, 37 °C
Experimental: Therefore, the general possibility of DNA interaction was examined by incubating the complex with the empty plasmid pSport1 at a concentration of 20 μM for 4 h at 37 °C. The gel electrophoretic separation[60] […] The ladder structure differs from both the untreated sample (Figure 9A) and the solvent control (Figure 9B) and is similar to that of Cisplatin (Figure 9C).
Two μL (conc. 0.5 μg/μL) of an empty pSport1 (4109 base pairs) plasmid was mixed with 2 μL of each test compound (200 μM in DMF) and diluted with 16 μL of nuclease-free water to reach a final concentration of 20 μM for GW7604-Pent-PtCl3 and […] for Cisplatin. Afterward, this mixture was incubated for 4 h at 37 °C under gentle shaking. Samples were loaded with gel loading buffer on agarose gel [0.5% (w/v) in 1 × TRIS-acetate-EDTA (TAE) buffer + 0.004% Midori Green Advance]. The following running parameters were used: 95 min at 3 V/cm in 1 × TAE buffer. Images were visualized under UV light (254 nm).

SKBr3 cells = experiment: MTT assay of metabolic activity, SKBr3; format: cell-based, human; conditions: 72 h, MTT
Experimental: The GW7604-Alk-PtCl3 complexes (with exclusion of GW7604-Prop-PtCl3) were investigated for cytotoxic effects in SKBr3 (ER-negative, COX-2-positive, Figure 6), MCF-7 (ERα-positive, COX-negative, Figure 6), and noncancerous TSA-201 (human embryonal kidney) cells at concentrations of 10–30 μM using an established MTT (3-(4,5-dimethylthiazol-2-yl)-2,5-diphenyltetrazolium bromide) assay.[60],[69]
After incubation for 72 h, the amounts of surviving, metabolically active cells were quantified based on their ability to transform the water-soluble yellow dye MTT to a purple formazan, which can be analyzed by UV–vis spectroscopy.
The exponentially growing cells were seeded at a density of 1750 (MCF-7), 2000 (SKBr3), and 1250 (TSA-201) cells/well into clear flat-bottom 96-well plates in triplicate. Following 24 h of incubation at 37 °C in a humidified atmosphere (5% CO2/95% air), the compounds [freshly prepared stock solutions in DMF, diluted with DMEM to the desired concentration (final DMF concentration of 0.1% (v/v))] were added to reach the indicated concentrations. After another 72 h of incubation, the cellular metabolic activity was measured employing an MTT assay. By adding predissolved MTT reagent in PBS at a final concentration of 0.5 mg/mL, the metabolic activity can be determined via an enzymatic conversion to a purple formazan salt. After 3 h, the medium was aspirated, and 200 μL of DMSO was added to dissolve the formed formazan crystals. The absorbance was measured at 570 and 690 nm (turbidity assessment) using an EnSpire plate reader (PerkinElmer, Waltham, MA, USA). Solvent-treated cells without a compound served as the positive control. Metabolic activity was calculated by the following equation [drawing 1]

[2] = 30 μM, DMEM + 10% FCS, 37 °C, dark
Experimental: After protein precipitation with ice-cold methanol (MeOH), the compounds remaining in solution were analyzed by HPLC and electrospray ionization high-resolution mass spectrometry (ESI-HR-MS).
The solution was then incubated for 4 h at 37 °C in the dark. Proteins were precipitated upon addition of 33 mL of ice-cold MeOH, and the mixture was stored for 2 h at −20 °C. The supernatant was then separated by centrifugation (3000 rpm), collected, and dried by lyophilization. The lyophilizate was extracted three times with 5 mL of MeOH and finally dried under reduced pressure. The residue was taken up in 1 mL of HPLC-grade MeOH, and 30 μL thereof was analyzed by HPLC and ESI-HR-MS.

With `CCC(=C(c1ccc(O)cc1)c1ccc(C=CC(=O)OCCC[CH]2[CH2][Pt-]2([Cl])([Cl])[Cl])cc1)c1ccccc1.[K+]` (mixture of isomers) [GW7604-Pent-PtCl3, Potassium trichlorido[η^2-(pent-4-en-1-yl (E)-3-(4-((E/Z)-1-(4-hydroxyphenyl)-2-phenylbut-1-en-1-yl)phenyl)acrylate)]platinate(II)] the “RBA (ERα)” value ([1]; RBA(E2) = 100%) was 7.29%, the IC50 ([1]; read-out: IC50 (ERα), displacement from the LBS) was 4.81 nM and the “interaction with plasmid DNA” value (plasmid pSport1) was “binds to DNA”. The IC50 (SKBr3 cells) was over 30000 nM and the “time to complete degradation in cell culture medium” value [2] was at most 4 h.
